Among the data in ChEMBL document CHEMBL3861995 (Bioorg Med Chem, 2016) are IC50 and inhibition values, retold here.

Usually IC50 stands for the midpoint of a concentration-inhibition curve. Higher therefore signals weaker potency in that assay. Broadly, the inhibition is the share of the control response that was lost under treatment.

One test concerns the target T1, Estrogen receptor (Homo sapiens, UniProt P03372).
T1 sequence (P03372 whole entry): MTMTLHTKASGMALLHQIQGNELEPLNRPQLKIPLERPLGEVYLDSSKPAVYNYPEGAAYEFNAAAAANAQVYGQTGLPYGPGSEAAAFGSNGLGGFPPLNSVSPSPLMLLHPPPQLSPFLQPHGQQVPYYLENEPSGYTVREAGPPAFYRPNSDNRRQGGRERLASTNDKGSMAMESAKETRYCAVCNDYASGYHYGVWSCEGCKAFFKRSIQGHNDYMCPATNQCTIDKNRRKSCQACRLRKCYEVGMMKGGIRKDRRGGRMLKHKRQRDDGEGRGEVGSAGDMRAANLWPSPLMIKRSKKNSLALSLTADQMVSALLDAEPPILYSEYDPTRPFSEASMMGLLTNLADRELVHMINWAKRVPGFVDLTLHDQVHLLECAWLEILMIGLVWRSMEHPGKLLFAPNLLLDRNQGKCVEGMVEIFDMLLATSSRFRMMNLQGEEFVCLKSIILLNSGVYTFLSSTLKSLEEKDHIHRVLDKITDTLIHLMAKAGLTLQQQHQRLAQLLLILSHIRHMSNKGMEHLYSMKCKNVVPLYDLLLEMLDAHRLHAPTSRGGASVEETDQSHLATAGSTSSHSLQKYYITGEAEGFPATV
The test is described as follows: biochemical.

Test [1] has as its target T2, Protein kinase C (PKC) (Homo sapiens) (UniProt O94806+P41743+P17252+P05129+Q05655+P05771+Q05513+Q02156+P24723+Q15139+Q04759). Description: Inhibition of PKC in human SH-SY5Y cells assessed as inhibition of PMA-stimulated MARCKS phosphorylation at 3 uM preincubated for 1 hr followed by PMA-stimulation for 15 mins by Western blot analysis relative to control. In kind it is cell-based.

Test [2] has as its target T2, Protein kinase C (PKC) (Homo sapiens). Description: Inhibition of PKC in human SH-SY5Y cells assessed as inhibition of PMA-stimulated MARCKS phosphorylation at 10 uM preincubated for 1 hr followed by PMA-stimulation for 15 mins by Western blot analysis relative to control. It is filed as cell-based. A general note: A western blot detects proteins with antibodies after separation by electrophoresis.

Description for Estrogen receptor: Displacement of Fluormone ES2 Green from human recombinant full length ERalpha expressed in insect cells measured up to 4 hrs by fluorescence polarization assay

As for `CN1CCN(CCOc2ccc(C(=C(C#N)c3ccccc3)c3ccc(OCCN4CCN(C)CC4)cc3)cc2)CC1`, the IC50 against Estrogen receptor is > 10 µM. Further, the inhibition was determined as 83% in test [1] and 78% in test [2].
`CCN(CC)CCOc1ccc(C(=C(C#N)c2ccccc2)c2ccc(OCCN(CC)CC)cc2)cc1`: at Estrogen receptor, the IC50 is > 10 µM. In addition, the inhibition is 12% in test [1] and 68% in test [2].
Turning to `N#C/C(=C(\c1ccccc1)c1ccc(OCCN2CCOCC2)cc1)c1ccccc1`, the values for the inhibition in test [1] and in test [2] were 43% and 57%, respectively.
For the compound `CN(C)CCOc1ccc(C(=C(C#N)c2ccccc2)c2ccccc2)cc1`, the inhibition was 22% in test [1] and 67% in test [2].
`N#CC(=C(c1ccc(OCCN2CCOCC2)cc1)c1ccc(OCCN2CCOCC2)cc1)c1ccccc1`: at Estrogen receptor, the IC50 worked out at 0.553 µM. For the same compound, the inhibition in test [1] is 62%; in test [2], 72%.
With `N#C/C(=C(/c1ccccc1)c1ccc(OCCN2CCOCC2)cc1)c1ccccc1`, the inhibition worked out at 37% in test [1] and 70% in test [2].
With `CN(C)CCOc1ccc(C(=C(C#N)c2cccs2)c2ccc(OCCN(C)C)cc2)cc1`, the IC50 against Estrogen receptor is > 10 µM. For the same compound, the inhibition in test [1] amounted to 39%; in test [2], 68%.
